Experimental data taken from ChEMBL document CHEMBL3860096, “Fragment-to-Lead Medicinal Chemistry Publications in 2015” (J Med Chem, 2017).

Tests used:
[1] = target: Coagulation factor XI (Homo sapiens, UniProt P03951); test: Inhibition of human factor 11a using pyroGlu-Pro-Arg-pNA.HCl substrate
[2] = Inhibition of Streptococcus pneumoniae NAD+-dependent DNA ligase A
[3] = Inhibition of Haemophilus influenzae NAD+-dependent DNA ligase A
[4] = Inhibition of DNA gyrase B (unknown origin)
[5] = target: Collagenase 3 (Homo sapiens, UniProt P45452); test: Inhibition of human recombinant MMP13 using thiopeptide as chromogenic substrate by colorimetric assay
[6] = target: Proto-oncogene tyrosine-protein kinase receptor Ret (Homo sapiens) (UniProt P07949); test: Inhibition of human recombinant RET assessed as residual activity at 100 uM by microfluidics separation based assay
[7] = target: DNA repair protein RAD51 homolog 1 (Homo sapiens, UniProt Q06609); test: Binding affinity to of humanised RAD51 C-terminal ATPase domain (with deletion of L2 loop residues 288 to 314) from Pyrococcus furiosus expressed in Escherichia coli by ITC method
Sequence of DNA repair protein RAD51 homolog 1 (Q06609 2-339 limits assumed): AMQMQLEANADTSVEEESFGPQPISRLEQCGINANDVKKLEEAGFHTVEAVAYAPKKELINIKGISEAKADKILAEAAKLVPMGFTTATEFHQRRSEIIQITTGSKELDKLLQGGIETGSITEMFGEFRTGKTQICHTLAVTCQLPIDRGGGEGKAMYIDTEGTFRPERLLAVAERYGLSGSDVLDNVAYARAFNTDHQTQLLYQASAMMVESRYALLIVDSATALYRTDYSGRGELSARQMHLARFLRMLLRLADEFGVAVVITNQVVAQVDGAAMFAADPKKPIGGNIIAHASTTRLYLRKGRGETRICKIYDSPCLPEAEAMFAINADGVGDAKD

Sequence of Coagulation factor XI (P03951 19-387 limits assumed): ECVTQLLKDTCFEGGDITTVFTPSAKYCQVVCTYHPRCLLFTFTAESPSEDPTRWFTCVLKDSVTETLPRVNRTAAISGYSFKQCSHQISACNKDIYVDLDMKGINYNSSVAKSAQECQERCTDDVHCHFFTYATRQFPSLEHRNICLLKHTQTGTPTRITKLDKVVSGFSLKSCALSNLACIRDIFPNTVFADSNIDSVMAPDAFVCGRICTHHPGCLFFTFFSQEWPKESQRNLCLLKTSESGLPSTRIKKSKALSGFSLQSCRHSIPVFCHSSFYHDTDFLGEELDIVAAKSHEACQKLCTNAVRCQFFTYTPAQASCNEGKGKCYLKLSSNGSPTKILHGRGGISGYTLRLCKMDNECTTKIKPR
Sequence of Coagulation factor XI (P03951 388-625 limits assumed): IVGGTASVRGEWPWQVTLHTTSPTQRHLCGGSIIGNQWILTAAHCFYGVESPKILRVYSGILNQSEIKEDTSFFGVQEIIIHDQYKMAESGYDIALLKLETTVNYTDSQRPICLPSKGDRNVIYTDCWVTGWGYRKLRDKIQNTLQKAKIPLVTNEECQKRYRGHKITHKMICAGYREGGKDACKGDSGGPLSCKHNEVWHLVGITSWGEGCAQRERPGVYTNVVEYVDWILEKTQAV
Sequence of Proto-oncogene tyrosine-protein kinase receptor Ret (Homo sapiens) (P07949 whole entry, the tested form may be a part): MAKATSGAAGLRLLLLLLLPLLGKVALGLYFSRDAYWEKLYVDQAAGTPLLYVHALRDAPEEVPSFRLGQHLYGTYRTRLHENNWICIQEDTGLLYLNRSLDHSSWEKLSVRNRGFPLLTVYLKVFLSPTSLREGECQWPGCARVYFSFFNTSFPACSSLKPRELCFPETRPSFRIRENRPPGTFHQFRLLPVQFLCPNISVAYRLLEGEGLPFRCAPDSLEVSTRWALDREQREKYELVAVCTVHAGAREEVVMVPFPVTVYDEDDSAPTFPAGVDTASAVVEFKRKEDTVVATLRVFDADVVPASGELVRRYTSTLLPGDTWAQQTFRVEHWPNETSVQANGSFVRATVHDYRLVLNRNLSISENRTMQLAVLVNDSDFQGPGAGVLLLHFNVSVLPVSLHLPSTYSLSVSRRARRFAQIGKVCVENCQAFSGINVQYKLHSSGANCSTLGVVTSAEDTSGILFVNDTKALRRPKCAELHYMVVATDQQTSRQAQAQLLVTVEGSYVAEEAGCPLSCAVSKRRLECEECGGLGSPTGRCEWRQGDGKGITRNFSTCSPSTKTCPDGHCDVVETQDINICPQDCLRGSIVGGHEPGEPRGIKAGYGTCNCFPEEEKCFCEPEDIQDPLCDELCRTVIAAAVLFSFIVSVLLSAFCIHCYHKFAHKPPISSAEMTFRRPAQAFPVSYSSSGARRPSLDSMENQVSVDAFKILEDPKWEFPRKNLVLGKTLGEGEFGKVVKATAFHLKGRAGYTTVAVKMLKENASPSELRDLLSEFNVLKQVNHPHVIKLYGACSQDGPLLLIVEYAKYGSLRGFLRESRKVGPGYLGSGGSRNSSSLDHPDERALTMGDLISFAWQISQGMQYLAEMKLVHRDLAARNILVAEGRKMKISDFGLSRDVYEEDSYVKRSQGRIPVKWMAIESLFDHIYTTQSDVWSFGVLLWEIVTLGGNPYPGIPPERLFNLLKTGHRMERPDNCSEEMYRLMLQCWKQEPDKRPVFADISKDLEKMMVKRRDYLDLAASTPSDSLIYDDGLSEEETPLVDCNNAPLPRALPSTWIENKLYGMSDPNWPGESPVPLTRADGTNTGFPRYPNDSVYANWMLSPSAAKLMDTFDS

O=C(N[C@@H](Cc1ccccc1)C(=O)NCc1cc2cc(Cl)ccc2[nH]c1=O)c1ccc2[nH]c(=O)cc(O)c2c1
Ki [1]: 0.5 nM

Cc1ccc2cc(C(N)=O)cc(O)c2n1
IC50 [2]: > 500000 nM | IC50 [3]: > 500000 nM

Cc1cc(-c2cc(NC(=O)c3ccc(C(=O)O)cc3C)[nH]n2)cc(C(F)(F)F)c1
IC50 [4]: 160 nM

COc1cccc(CNC(=O)C#Cc2cn(Cc3ccc(C(=O)O)cc3)c(=O)[nH]c2=O)c1
IC50 [5]: 11 nM

Brc1ccc2c(c1)ncn2-c1ccccc1
Activity [6]: 28%

CC(C)(C)c1nc(-c2ccc[nH]2)c2cc(C(N)=O)c(N)nc2n1
IC50 [2]: 100 nM | IC50 [3]: 100 nM

O=S(=O)(NCCc1c[nH]c2ccccc12)c1cc(Br)c(Cl)s1
Kd [7]: 1300 nM

COC(=O)[C@@H](N)Cc1c[nH]c2ccccc12 [TRYPTOPHAN METHYL ESTER]
Kd [7]: 570000 nM
